Consider seven molecules from patent publication US20100273780A1, “SUBSTITUTED 8-HETEROARYL XANTHINES” (PGXHEALTH, LLC, priority 2003, published 2010).

pKi: −log10 of the molar value.

This assay concerns the target T1, rat A2B receptors (rA2B) (Rattus norvegicus, UniProt P29276).
T1 construct: expressed in transfected cells; host or cells: HEK-293 cells, stably transfected (G418 selection); membranes
T1 sequence (P29276 1-332): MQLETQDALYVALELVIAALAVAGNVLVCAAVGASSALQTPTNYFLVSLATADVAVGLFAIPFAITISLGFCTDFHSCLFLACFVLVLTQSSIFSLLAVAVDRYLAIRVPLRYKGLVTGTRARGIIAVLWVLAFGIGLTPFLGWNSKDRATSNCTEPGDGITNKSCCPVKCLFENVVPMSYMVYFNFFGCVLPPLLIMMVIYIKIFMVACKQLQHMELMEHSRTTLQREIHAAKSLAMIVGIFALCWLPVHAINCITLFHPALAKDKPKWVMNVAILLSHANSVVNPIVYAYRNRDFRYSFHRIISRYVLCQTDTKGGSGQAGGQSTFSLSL
The experiment in a line: Radioligand competition binding (125I-ABOPX) at rat A2B receptors in HEK-293 membranes. The following applies: displacement of specific [125I]ABOPX binding at rat A2B receptors expressed in HEK-293 cells; read-out: RatA2B Ki. The protocol: The plasmid was amplified in competent JM109 cells and plasmid DNA isolated using Wizard Megaprep columns (Promega Corporation, Madison, Wis.).
Transfected HEK cells were grown under 5% CO2/[…] humidified atmosphere at a temperature of 37° C. Colonies were selected by growth of cells in 0.6 mg/mL G418. Transfected cells were maintained in DMEM supplemented with Hams F12 nutrient mixture (1/1), 10% newborn calf serum, 2 mM glutamine and containing 50 IU/mL penicillin, […], and 0.2 mg/mL Geneticin (G418, Boehringer Mannheim). Cells were cultured in 10 cm diameter round plates and subcultured when grown confluent (approximately after 72 hours).
At A2B receptors: Confluent monolayers of HEK-A2B cells were washed with PBS followed by ice cold Buffer A (10 mM HEPES, 10 mM EDTA, pH 7.4) with protease inhibitors (10 μg/mL benzamidine, 100 μM phenylmethanesulfonyl fluoride, and 2 μg/mL of each aprotinin, pepstatin and leupeptin). The cells were homogenized in a Polytron (Brinkmann) for 20 s, centrifuged at 30,000×g, and the pellets washed twice with buffer HE (10 mM HEPES, 1 mM EDTA, pH 7.4 with protease inhibitors). The final pellet was resuspended in buffer HE, supplemented with 10% sucrose and frozen in aliquots at −80° C. For binding assays membranes were thawed and diluted 5-10 fold with HE to a final protein concentration of approximately 1 mg/mL. To determine protein concentrations, membranes, and bovine serum albumin standards were dissolved in 0.2% NaOH/0.01% SDS and protein determined using fluorescamine fluorescence. Stowell, C.
After incubation, 20 minutes at room temperature, 50 μL, of 10 mg/mL Na-metabisulfite in water was added to quench the reaction. The reaction mixture was applied to a C18 HPLC column, eluting with a mixture of methanol and 5 mM phosphate, pH 6.0. After 5 min at 35% methanol, the methanol concentration was ramped to 100% over 15 min.
Radioligand binding experiments were performed in triplicate with 20-25 μg membrane protein in a total volume of 0.1 mL HE buffer supplemented with 1 U/mL adenosine deaminase and 5 mM MgCl2. The incubation time was 3 h at 21° C. Nonspecific binding was measured in the presence of 100 μM NECA. […] Membranes were filtered on Whatman GF/C filters using a Brandel cell harvester (Gaithersburg, Md.) and washed 3 times over 15-20 seconds with ice cold buffer (10 mM Tris, 1 mM MgCl2, pH 7.4). Bmax and KD values were calculated by Marquardt's nonlinear least squares interpolation for single a site binding models. Marquardt, D. M., J. Soc. Indust. Appl. […] Ki values for different compounds were derived from IC50 values as described. Linden, J., J. Cycl. Nucl. […] Data from replicate experiments are tabulated as means±SEM.
As usually defined, the pKi is −log10 of the Ki, conventionally taken in molar units. As to `CCCn1c(=O)c2[nH]c(-c3ccc(Cl)nc3)nc2n(CCc2ccc(OC)cc2)c1=O` [Compound 54, 1-propyl-3-(4-methoxyphenyl)ethyl-8-(6-chloro-3-pyridyl)xanthine], the negative-log Ki (pKi) was over 5.30.

With `CCn1c(=O)c2[nH]c(-c3ccc(NCCN4CCCC4)nc3)nc2n(CC)c1=O` [Compound 81, 1,3-Diethyl-8-[6-[2-(1-pyrrolidinyl)-ethylamino]-3-pyridyl]xanthine], the pKi was over 7.00.

Turning to “1,3-Dipropyl-8-[6-[N-(2-pyrazinecarbonyl)methylamino]-3-pyridyl)xanthine [Compound 109]”, the negative-log Ki (pKi) was over 6.30.

`CCCn1c(=O)c2[nH]c(-c3ccc(NCCc4ccccn4)nc3)nc2n(CCC)c1=O` [Compound 78, 1,3-Dipropyl-8-[6-[2-(2-pyridyl)-ethylamino]-3-pyridyl]xanthine]: the negative-log Ki (pKi) was over 7.00.

In the case of `CCCn1c(=O)c2[nH]c(-c3ccc(NCCNC(C)=O)nc3)nc2n(CCC)c1=O` [Compound 83, 1,3-Dipropyl-8-(6-(2-acetylaminoethyl)amino-3-pyridyl)xanthine], the pKi is over 6.30.

With `CCCn1c(=O)c2[nH]c(-c3ccc(N(C)C(=O)c4cc(C)on4)nc3)nc2n(CCC)c1=O` [Compound 111, 1,3-Dipropyl-8-[6-[N-(5-methylisoxazol-3-yl-3-carbonyl)methylamino]-3-pyridyl)xanthine], the pKi was over 7.00.

On to `CCCn1c(=O)c2[nH]c(-c3ccc(NCc4ccc(CN)cc4)nc3)nc2n(CCC)c1=O` [Compound 21, 1,3-Dipropyl-8-[6-(4-aminomethylbenzylamino)-3-pyridyl]xanthine], for which the pKi is over 6.30.
